Consider 17 compounds from publication PMC10459710 (Viruses, 2023).

By CC50 is commonly meant the concentration at which the toxic effect on the cells reaches its halfway point. Broadly, the IC50 is the midpoint of a concentration-inhibition curve.

Data set [1] can be described thus: CellTiter-Glo cell viability assay in Vero cells. It counts as cell-based, African green monkey. To be noted: African green monkey, 72 h exposure. (In ATP-based viability assays light output follows the ATP content of the culture.)
For data set [2], the system named is HSV-1. Nature of the data set: Cytopathic effect. The class given is cell-based, Herpes simplex virus type 1 (strain H129). To be noted: for IC50: 48 h; for Selective Index: SI = CC50/IC50, CPE reduction assay, Vero cells. (In general: Protection from cytopathic effect is a common read-out in antiviral testing.)
Data set [3] deals with Vero cells. Kind of data set: CellTiter-Glo cell viability assay in Vero cells. It counts as cell-based, African green monkey. To be noted: 72 h exposure.
The subject of data set [4] is cyclin B-dependent CDK1. To be noted: read-out: in vitro IC50; cited from earlier work.
Data set [5] can be described thus: CellTiter-Glo cell viability assay in Hela cells. The class given is cell-based. To be noted: human, 72 h exposure.
For data set [6], the system named is HSV-1. Nature of the data set: Time-of-addition assay, HSV-1 in Vero cells, plaque assay readout. It counts as cell-based, Herpes simplex virus type 1 (strain H129).
Data set [7] concerns HSV-1 IE, E, and L genes. Nature of the data set: HSV-1 IE, E and L gene expression (qRT-PCR and Western blot) in Vero cells. The class given is cell-based, Herpes simplex virus type 1 (strain H129). In general terms: Real-time PCR tracks product formation cycle by cycle.
In data set [8] the test system is cycle E-dependent CDK2. To be noted: read-out: in vitro IC50; cited from earlier work.
The subject of data set [9] is HSV-1. Kind of data set: Plaque reduction assay (viral titer in supernatant), HSV-1-infected Vero cells. It counts as cell-based, Herpes simplex virus type 1 (strain H129). To be noted: for Viral titer: HSV-1 MOI 0.01, 48 h, supernatant.
Data set [10] has as its system HSV-1. Kind of data set: Virus attachment assay (IFA, anti-gD). It counts as cell-based, Herpes simplex virus type 1 (strain H129). The conditions noted are these: BMS at 0.5, 5, and 50 µM, 4 °C, MOI 10.
Data set [11] has as its system HSV-1. Kind of data set: BMS treatment during different time periods of the HSV-1 life cycle. The class given is cell-based, Herpes simplex virus type 1 (strain H129).
In data set [12] the test system is HSV-1. Nature of the data set: Plaque reduction assay, HSV-1-infected Hela cells. It counts as cell-based, Herpes simplex virus type 1 (strain H129). The conditions noted are these: Human alphaherpesvirus 1, HSV-1 MOI 0.01, Hela cells, 48 h.
Data set [13] concerns HSV-2. Kind of data set: Anti-HSV-2 activity in Vero cells by plaque assay. The class given is cell-based, Herpes simplex virus type 2 (strain G). To be noted: HSV-2, Vero cells.
In data set [14] the test system is HSV-1. Nature of the data set: Plaque reduction assay, HSV-1-infected HepG2 cells. The class given is cell-based, Herpes simplex virus type 1 (strain H129). The conditions noted are these: Human alphaherpesvirus 1, HSV-1 MOI 0.01, HepG2 cells, 48 h.
Data set [15] is described as follows: CellTiter-Glo cell viability assay in HepG2 cells. The conditions noted are these: human, 72 h exposure. The class given is cell-based.
The test system of data set [16] is HSV-1. Kind of data set: Virus entry assay (IFA, anti-ICP5). The class given is cell-based, Herpes simplex virus type 1 (strain H129).
Data set [17] concerns HSV-1 DNA. Nature of the data set: Intracellular and virion-associated HSV-1 DNA levels by real-time PCR. It counts as cell-based, Herpes simplex virus type 1 (strain H129). The conditions noted are these: Vero cells, MOI 0.01, 24 h, qPCR.
The subject of data set [18] is HCMV. The arrangement: method as in earlier work. The conditions noted are these: cited from earlier work.
Setting [19] is: Human alphaherpesvirus 1, HSV-1 MOI 0.01, Vero cells, CPE reduction, ND = Not detectable, read-out: IC50.

In turn, `CCN1CCN(Cc2ccc(Nc3ncc(F)c(-c4cc(F)c5nc(C)n(C(C)C)c5c4)n3)nc2)CC1` [Abemaciclib] returned a CC50 at 72 h in data set [1] of 29.1 µM.
For `Nc1nc2c(ncn2COCCO)c(=O)[nH]1` [Acyclovir, acyclovir], the IC50 in data set [2] (setting [19]) is 0.42 µM. For the same compound, the “Selective Index” value in [2] was over 238.10. In addition, in data set [1], the CC50 at 72 h was over 100 µM.
Regarding `CC(=O)Nc1cc(Oc2ccc3c(C(=O)Nc4ccc(CN5CCN(C)CC5)c(C(F)(F)F)c4)cccc3c2)ncn1` [BGG463], in [3], half-maximal cytotoxicity (CC50) was put at 18.5 µM.
Turning to `CCCCOc1c(C(=O)c2c(F)cc(C)cc2F)c[nH]c2nncc1-2` [BMS-265246], the half-maximal inhibitory concentration (IC50) in data set [4] is 0.006 µM; in data set [2] (Human alphaherpesvirus 1, Vero), 0.08 µM; in data set [8] it was 0.009 µM; in data set [9] (Human alphaherpesvirus 1, HSV-1 MOI 0.01, Vero cells, 48 h, plaque assay), 0.95 µM; in [12] it was 0.18 µM; in data set [13] (Human alphaherpesvirus 2, plaque assay), 1.06 µM. This compound also had an IC50 in [14] of 1.03 µM. Further, the “Selective Index” value in data set [2] is listed as over 6250; in [13] (CC50/IC50), over 472. For the same compound, the figures for the CC50 at 72 h in data set [5], in [1] and in [15] were 189 µM, over 500 µM and over 500 µM, respectively. Besides, the “production of progeny virions” value in data set [6] (pretreatment of the cells) is on record as “significantly reduced”. For the same compound, the viral titer reduction entry in data set [6] (treatment started at 4 or 10 hpi until harvesting) is “less than one logarithm”. In addition, in data set [7] (MOI 0.01, qRT-PCR at 4, 8, and 20 hpi), the “transcripts of the IE gene ICP27, the E gene ICP8, and the L gene gD” value was “concentration-dependently suppressed”. Besides, the “protein levels of ICP4, ICP8, ICP5, and gB” value in data set [7] (Western blot at 24 hpi) was “reduced by BMS concentration-dependently”. The Viral titer in data set [9] (BMS 0.02 μM) was determined as 5.90 log10PFU/mL; in data set [9] (BMS 0.07 μM) it was 5.87 log10PFU/mL; in data set [9] (BMS 0.21 μM), 5.85 log10PFU/mL; in data set [9] (BMS 0.62 μM) it was 5.76 log10PFU/mL; in [9] (BMS 1.85 μM) it was 5.01 log10PFU/mL; in [9] (BMS 5.56 μM) it was 3.40 log10PFU/mL. Also, the Viral titer in [9] (BMS 16.67 μM) is listed as 2.60 log10PFU/mL; in data set [9] (BMS 50 μM) it was 2.24 log10PFU/mL. Besides, the “binding of HSV-1 to Vero cells” value in [10] is given as “did not affect the binding”. In data set [11] (50 μM BMS at 5–10 and 10–15 hpi, MOI 0.1, 30 h of infection), the “virus production (plaque assay)” value is recorded as “significantly suppress virus production”. Moreover, in data set [11] (50 μM BMS during 0–5, 5–10, 10–15, or 15–20 hpi, MOI 1, Vero cells), the “transcription of ICP27, ICP8, and gD” value is reported as “dramatically suppresses”. The “entry of HSV-1 to Vero cells” value in data set [16] (BMS at 0.5, 5, and 50 µM, 37 °C 30 min, MOI 10) is “did not affect the entry”. Also, the “expression of ICP5 (IFA over 1-4 hpi)” value in [16] (Vero cells, MOI 10, 1, 2, 3, and 4 h at 37 °C) is given as “the expression of ICP5 was prevented”. In addition, the “intracellular HSV-1 DNA levels” value in [17] (Hirt method) is recorded as “decreases concentration-dependently”. The “virion-associated HSV-1 viral DNA levels” value in data set [17] (supernatant) was “reduced concentration-dependently”.
Consider `COC(=O)[C@]1(Cc2ccc(O)c(CC=C(C)C)c2)OC(=O)C(O)=C1c1ccc(O)cc1` [Butyrolactone I], for which, in data set [1], the midpoint of cytotoxicity, the CC50 at 72 h, lay at 151 µM.
With `CCn1cnc2c(Nc3cccc(Cl)c3)nc(N[C@@H]3CCCC[C@@H]3N)nc21` [CGP74514A], the “reduction of HCMV replication compared with untreated controls” value in data set [18] is ~ 300 fold.
With `COc1ccc(CNc2nc(N(CCO)CCO)nc3c2ncn3C(C)C)cc1` [CVT-313], the midpoint of cytotoxicity in data set [3], the CC50, lay at 6.38 µM.
`CCc1cnn2c(NCc3ccc[n+]([O-])c3)cc(N3CCCC[C@H]3CCO)nc12` [Dinaciclib] returned a CC50 at 72 h in data set [1] of 1.13 µM.
For `CN1CC[C@H](c2c(O)cc(O)c3c(=O)cc(-c4ccccc4Cl)oc23)[C@H](O)C1` [Flavopiridol], in [1], half-maximal cytotoxicity (CC50 at 72 h) was put at 0.16 µM.
For the compound `COc1ccccc1-c1cc(Nc2cccc(CS(N)(=O)=O)c2)ncn1` [LDC000067], half-maximal cytotoxicity in data set [3] (CC50) was put at 14.4 µM.
Turning to `Cc1n[nH]c2ncc(C(=O)N3CCC[C@H]3c3ccc(Cl)cc3)cc12` [MSC2530818], the concentration for half-maximal inhibition (IC50) in data set [2] (setting [19]) stood at 25 µM. The “Selective Index” value in data set [2] was determined as 5.54. The compound also had a CC50 at 72 h in data set [1] of 138 µM.
In [3], `C=CS(=O)(=O)c1ccc(Nc2nc(OCC3CCCCC3)c3[nH]cnc3n2)cc1` [NU6300] came in with a CC50 of 13.8 µM.
Still for that read-out and setting: to `Nc1cc(Nc2ccc(S(N)(=O)=O)cc2)ncn1` [PNU112455A] belongs 156 µM.
In data set [1], `CC(C)[C@H](CO)Nc1nc(Nc2ccc(C(=O)O)c(Cl)c2)c2ncn(C(C)C)c2n1` [Purvalanol B] showed a cytotoxic concentration (CC50) at 72 h of 73.5 µM.
In [3], `O=C1NC(=NCc2cccs2)S/C1=C\c1ccc2ncccc2c1` [Ro-3306] had a CC50 of 14.1 µM.
In data set [1], `CC[C@H](CO)Nc1nc(NCc2ccccc2)c2ncn(C(C)C)c2n1` [Seliciclib] came in with a half-maximal cytotoxic concentration (CC50) at 72 h of 18.5 µM.
Compound `CN(C)C/C=C/C(=O)Nc1cccc(C(=O)Nc2cccc(Nc3ncc(Cl)c(-c4c[nH]c5ccccc45)n3)c2)c1` [THZ2] had a CC50 in [3] of 0.42 µM.
